Test results published in ChEMBL document CHEMBL3988442, “University of Dundee, Small-Polar-MMV Screening Library” (2021).
Where “and” joins values, the source holds several entries; their conditions need not be identical. Equal entries are not always repeated.

Columns and labels:
Assay type in all cases: functional
[1] = biological target: Protein translocase subunit SecA (Escherichia coli (strain K12), UniProt P10408); test: Assay to Identify E. coli SecA ATPase Inhibitors
Histidine--tRNA ligase [2] = biological target: T1, Histidine--tRNA ligase (Leishmania infantum, UniProt A4I591); test: Leishmania infantum Histidine tRNA synthetase (LdHisRS)
T1 sequence (A4I591 whole entry): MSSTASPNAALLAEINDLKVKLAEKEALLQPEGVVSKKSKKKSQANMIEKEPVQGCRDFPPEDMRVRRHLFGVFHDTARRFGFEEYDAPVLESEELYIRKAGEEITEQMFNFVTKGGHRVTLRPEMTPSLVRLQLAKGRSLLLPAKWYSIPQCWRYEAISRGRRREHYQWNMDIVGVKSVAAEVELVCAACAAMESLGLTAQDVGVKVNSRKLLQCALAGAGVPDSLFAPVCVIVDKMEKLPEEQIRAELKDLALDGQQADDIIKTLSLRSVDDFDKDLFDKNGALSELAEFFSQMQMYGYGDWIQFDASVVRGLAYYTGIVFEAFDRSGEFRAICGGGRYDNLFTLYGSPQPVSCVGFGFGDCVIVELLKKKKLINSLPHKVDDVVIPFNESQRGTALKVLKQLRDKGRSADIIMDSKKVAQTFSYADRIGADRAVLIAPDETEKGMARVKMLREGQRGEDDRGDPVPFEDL

Histidine--tRNA ligase [3] = biological target: T2, Histidine--tRNA ligase (Trypanosoma cruzi (strain CL Brener), UniProt Q4DA54); test: Trypanosoma cruzi histidyl tRNA synthetase (Tc-HisRS)
T2 sequence (Q4DA54 whole entry): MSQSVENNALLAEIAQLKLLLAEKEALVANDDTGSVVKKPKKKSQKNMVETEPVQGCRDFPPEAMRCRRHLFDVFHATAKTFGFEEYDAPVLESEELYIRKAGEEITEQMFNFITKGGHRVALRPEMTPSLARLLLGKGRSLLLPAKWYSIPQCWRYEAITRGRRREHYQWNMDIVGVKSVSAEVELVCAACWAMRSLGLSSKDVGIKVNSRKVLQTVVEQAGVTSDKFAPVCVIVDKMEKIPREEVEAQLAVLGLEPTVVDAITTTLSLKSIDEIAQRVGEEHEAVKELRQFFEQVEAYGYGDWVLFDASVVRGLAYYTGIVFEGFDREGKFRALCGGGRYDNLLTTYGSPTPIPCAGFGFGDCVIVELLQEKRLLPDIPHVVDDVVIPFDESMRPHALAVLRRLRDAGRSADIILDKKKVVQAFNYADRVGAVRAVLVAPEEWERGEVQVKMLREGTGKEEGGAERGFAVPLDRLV

ClpP1P2 = ClpP1P2 (Mycobacterium tuberculosis (strain ATCC 25618 / H37Rv), UniProt P9WPC3+P9WPC5); test: in vitro assay to detect presence of AMC directly proportional to the activity of ClpP1P2. GHDDI collaboration.
[4] = biological target: T3, Ubiquitin-activating enzyme e1, putative (Leishmania donovani (strain BPK282A1), UniProt E9BSI1); test: Leishmania donovani Ubiquitin Activating Enzyme (LdE1)
T3 sequence (E9BSI1 whole entry): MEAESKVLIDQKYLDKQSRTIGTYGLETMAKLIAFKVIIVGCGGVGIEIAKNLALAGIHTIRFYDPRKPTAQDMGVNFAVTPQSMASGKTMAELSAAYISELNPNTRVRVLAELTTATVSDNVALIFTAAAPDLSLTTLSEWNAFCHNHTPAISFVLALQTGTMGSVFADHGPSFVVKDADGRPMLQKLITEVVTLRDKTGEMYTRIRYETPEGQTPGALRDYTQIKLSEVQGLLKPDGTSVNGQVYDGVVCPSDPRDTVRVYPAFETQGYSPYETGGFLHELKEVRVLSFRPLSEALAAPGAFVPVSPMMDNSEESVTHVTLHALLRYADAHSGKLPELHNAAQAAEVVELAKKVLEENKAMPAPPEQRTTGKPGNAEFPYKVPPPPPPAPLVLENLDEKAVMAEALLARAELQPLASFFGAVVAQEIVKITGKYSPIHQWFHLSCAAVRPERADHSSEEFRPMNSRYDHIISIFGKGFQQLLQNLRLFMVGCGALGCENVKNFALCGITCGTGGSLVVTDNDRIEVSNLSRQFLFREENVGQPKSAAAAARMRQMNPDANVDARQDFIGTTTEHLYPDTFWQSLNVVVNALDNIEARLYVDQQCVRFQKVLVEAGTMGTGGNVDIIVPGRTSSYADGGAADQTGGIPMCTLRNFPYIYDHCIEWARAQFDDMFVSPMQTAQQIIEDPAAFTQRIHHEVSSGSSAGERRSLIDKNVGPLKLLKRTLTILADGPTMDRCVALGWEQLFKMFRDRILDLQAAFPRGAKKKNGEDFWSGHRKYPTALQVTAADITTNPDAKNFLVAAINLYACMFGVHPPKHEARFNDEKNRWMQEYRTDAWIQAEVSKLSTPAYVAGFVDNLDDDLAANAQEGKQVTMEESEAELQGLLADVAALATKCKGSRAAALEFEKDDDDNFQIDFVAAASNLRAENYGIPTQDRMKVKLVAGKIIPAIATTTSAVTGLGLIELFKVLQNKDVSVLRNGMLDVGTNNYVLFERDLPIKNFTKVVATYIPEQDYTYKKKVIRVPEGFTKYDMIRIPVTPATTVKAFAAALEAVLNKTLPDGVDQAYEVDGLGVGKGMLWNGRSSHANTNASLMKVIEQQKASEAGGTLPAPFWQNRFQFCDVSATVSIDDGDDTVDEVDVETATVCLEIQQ

Lysine--tRNA ligase = Lysine--tRNA ligase (Plasmodium falciparum (isolate 3D7), UniProt Q8IDJ8); test: Pf-KRS-1 (Lysyl-RNA Synthetase-1, KRS-1, cytosolic KRS) from Plasmodium falciparum. Inhibitor assay, 384 well plate, luminescence read.
Sequence of Lysine--tRNA ligase (Q8IDJ8 whole entry): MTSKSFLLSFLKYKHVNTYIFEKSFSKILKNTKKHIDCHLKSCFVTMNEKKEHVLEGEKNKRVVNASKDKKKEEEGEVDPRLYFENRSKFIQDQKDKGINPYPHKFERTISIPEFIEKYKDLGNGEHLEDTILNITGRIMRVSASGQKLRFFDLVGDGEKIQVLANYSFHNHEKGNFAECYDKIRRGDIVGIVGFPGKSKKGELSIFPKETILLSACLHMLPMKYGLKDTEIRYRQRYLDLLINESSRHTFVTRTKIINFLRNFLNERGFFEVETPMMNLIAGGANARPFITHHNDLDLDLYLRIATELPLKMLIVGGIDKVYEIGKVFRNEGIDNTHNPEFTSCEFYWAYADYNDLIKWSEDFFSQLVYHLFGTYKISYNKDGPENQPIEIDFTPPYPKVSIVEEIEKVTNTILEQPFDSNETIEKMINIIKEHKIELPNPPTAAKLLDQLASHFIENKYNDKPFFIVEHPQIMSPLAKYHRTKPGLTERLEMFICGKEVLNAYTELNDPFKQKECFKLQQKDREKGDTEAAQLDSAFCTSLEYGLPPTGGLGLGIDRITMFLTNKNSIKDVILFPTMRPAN

Sequence of ClpP1P2 (P9WPC5 whole entry): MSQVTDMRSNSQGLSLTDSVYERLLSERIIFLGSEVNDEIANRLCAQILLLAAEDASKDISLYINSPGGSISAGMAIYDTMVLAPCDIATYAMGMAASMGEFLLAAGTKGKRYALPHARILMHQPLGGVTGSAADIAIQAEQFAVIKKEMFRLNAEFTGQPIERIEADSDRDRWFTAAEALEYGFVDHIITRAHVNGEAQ
Sequence of ClpP1P2 (P9WPC3 whole entry): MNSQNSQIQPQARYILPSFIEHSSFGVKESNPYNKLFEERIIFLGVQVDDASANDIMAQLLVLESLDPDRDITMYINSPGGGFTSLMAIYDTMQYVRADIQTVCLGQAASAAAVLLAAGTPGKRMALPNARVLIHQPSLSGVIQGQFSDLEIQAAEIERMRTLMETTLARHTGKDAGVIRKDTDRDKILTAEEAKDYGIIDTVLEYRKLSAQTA
Sequence of Protein translocase subunit SecA (P10408 whole entry): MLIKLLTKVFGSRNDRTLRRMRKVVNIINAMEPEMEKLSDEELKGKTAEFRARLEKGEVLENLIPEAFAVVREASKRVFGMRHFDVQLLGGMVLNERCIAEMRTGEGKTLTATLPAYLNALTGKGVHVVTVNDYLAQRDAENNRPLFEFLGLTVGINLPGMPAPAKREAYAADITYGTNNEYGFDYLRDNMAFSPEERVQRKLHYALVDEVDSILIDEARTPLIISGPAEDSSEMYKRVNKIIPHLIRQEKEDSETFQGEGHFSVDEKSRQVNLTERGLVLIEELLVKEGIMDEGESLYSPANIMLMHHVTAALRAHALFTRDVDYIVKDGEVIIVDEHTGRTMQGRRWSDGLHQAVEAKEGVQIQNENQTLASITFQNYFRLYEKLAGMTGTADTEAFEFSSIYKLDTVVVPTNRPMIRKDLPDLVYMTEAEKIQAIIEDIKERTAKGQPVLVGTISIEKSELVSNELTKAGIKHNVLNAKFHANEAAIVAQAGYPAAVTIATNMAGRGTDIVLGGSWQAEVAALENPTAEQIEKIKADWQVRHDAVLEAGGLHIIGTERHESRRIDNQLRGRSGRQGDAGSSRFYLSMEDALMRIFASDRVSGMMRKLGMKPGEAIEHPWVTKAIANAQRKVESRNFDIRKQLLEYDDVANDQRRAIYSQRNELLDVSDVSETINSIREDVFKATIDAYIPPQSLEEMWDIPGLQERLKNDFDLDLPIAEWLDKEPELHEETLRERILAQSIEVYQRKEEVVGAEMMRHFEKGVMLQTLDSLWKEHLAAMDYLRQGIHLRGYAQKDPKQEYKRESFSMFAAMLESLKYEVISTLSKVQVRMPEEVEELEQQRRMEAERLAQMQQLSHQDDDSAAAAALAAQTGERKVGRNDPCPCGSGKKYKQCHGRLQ

Row | Compound | IC50 [1] | IC50 (Histidine--tRNA ligase [2]) | IC50 (Histidine--tRNA ligase [3]) | IC50 (ClpP1P2) [µM] | IC50 [4] | IC50 (Lysine--tRNA ligase) [µM]
1 | CCc1c(C(=O)NCC2CCS(=O)(=O)C2)cnn1-c1ccc(C)cc1 (stereo unspecified) | > 100 µM |  |  |  |  | 
2 | COc1ccccc1C1CC(=O)Nc2nc(N3CCCCC3)sc21 (stereo unspecified) | 22.1 µM and 29.4 µM | 0.231 µM | 2.4 µM and 1.34 µM | > 100 | 54.8 µM and 48.5 µM | > 50.1
3 | CNc1nc2c(s1)C(c1cc(Cl)ccc1F)CC(=O)N2 (stereo unspecified) | > 100 µM |  | 19.4 µM and 20.6 µM | > 100 |  | > 50.1
4 | O=C1CC(c2ccccc2C(F)(F)F)c2sc(N3CCOCC3)nc2N1 (stereo unspecified) | > 100 µM |  | 10.8 µM and 16.3 µM | > 100 | > 100 µM | > 50.1
5 | COc1ccc(C2CC(=O)Nc3nc(N4CCOCC4)sc32)c(OC)c1 (stereo unspecified) | > 100 µM and 33.8 µM | 0.231 µM and 0.259 µM and 0.28 µM | 2.24 µM and 2.8 µM | > 100 | > 100 µM | > 50.1
6 | Nc1nc2c(s1)C(c1c(F)cccc1Cl)CC(=O)N2 (stereo unspecified) | > 100 µM | 3.22 µM and 4.42 µM | 9.65 µM and 7.68 µM |  |  | > 50.1
7 | CNc1nc2c(s1)C(c1ccccc1Cl)CC(=O)N2 (stereo unspecified) | > 100 µM | 2.19 µM and 2.57 µM and 2.79 µM and 2.64 µM | 6.72 µM and 7.27 µM |  |  | > 50.1
8 | COc1cccc(C2CC(=O)Nc3nc(N4CCCCC4)sc32)c1OC (stereo unspecified) | 22.7 µM and 22.6 µM | 0.423 µM and 0.346 µM | 2.42 µM and 4.13 µM | > 100 | 81.5 µM and 75 µM | > 50.1
9 | O=C1CC(c2ccccc2Br)c2sc(N3CCOCC3)nc2N1 (stereo unspecified) | > 100 µM | 1.13 µM and 1.44 µM | 6.96 µM and 6.21 µM |  | > 100 µM and 92.2 µM | > 50.1
10 | CC(C)Oc1ccccc1C1CC(=O)Nc2nc(N3CCOCC3)sc21 (stereo unspecified) | 41.6 µM and 34.6 µM |  | 3.93 µM and 5.46 µM | > 100 | 86.4 µM and 89.7 µM | > 50.1
11 | COc1ccc(OC)c(C2CC(=O)Nc3nc(N4CCOCC4)sc32)c1 (stereo unspecified) | > 100 µM and 34.1 µM | 0.373 µM and 0.317 µM | 3.5 µM and 4.23 µM | > 100 | > 100 µM | > 50.1
12 | COc1ccc(C2CC(=O)Nc3nc(N4CCOCC4)sc32)cc1 (stereo unspecified) | 37.3 µM and > 100 µM | 1.79 µM and 2.45 µM and 2.49 µM and 2.07 µM | 10.8 µM and 8.7 µM | > 100 | > 100 µM | > 50.1
13 | CNc1nc2c(s1)C(c1ccc(F)cc1Cl)CC(=O)N2 (stereo unspecified) | > 100 µM |  | 22.8 µM and 15.7 µM |  |  | > 50.1
14 | CNc1nc2c(s1)C(c1cccc(Cl)c1Cl)CC(=O)N2 (stereo unspecified) | 37.8 µM and > 100 µM |  | 10.4 µM and 11.2 µM |  |  | > 50.1
15 | CNc1nc2c(s1)C(c1ccc(Cl)cc1Cl)CC(=O)N2 (stereo unspecified) | > 100 µM | 4.56 µM and 3.65 µM | 10.3 µM and 10.6 µM |  |  | > 50.1
16 | CNc1nc2c(s1)C(c1ccccc1F)CC(=O)N2 (stereo unspecified) | > 100 µM and 93.8 µM | 2.32 µM and 2.22 µM and 2.27 µM and 2.53 µM | 5.69 µM and 4.89 µM | > 100 |  | > 50.1
17 | CC1(C)OCC(CNC(=O)c2cnn(-c3cc(Cl)ccc3Cl)c2N)O1 (stereo unspecified) | > 100 µM |  |  |  |  | 
18 | COc1ccc(-n2ncc(C(=O)NCC3COC(C)(C)O3)c2N)cc1 (stereo unspecified) | > 100 µM |  |  |  |  | 
19 | COCCNC(=O)c1cn(C(C)(C)C)c2ncccc12 | > 100 µM |  |  |  |  | 
20 | COCC(C)NC(=O)c1cn(C(C)(C)C)c2ncccc12 (stereo unspecified) | > 100 µM |  |  |  |  | 
21 | COc1cccc(C2CC(=O)Nc3nc(N4CCOCC4)sc32)c1OC (stereo unspecified) | 10.6 µM and 8.05 µM | 1.2 µM and 0.876 µM | 5.22 µM and 4.5 µM |  | 85.8 µM and 91 µM | > 50.1
22 | CNc1nc2c(s1)C(c1cccc(F)c1F)CC(=O)N2 (stereo unspecified) | 93.5 µM and 33.1 µM |  | 22.5 µM and 14.6 µM | > 100 |  | > 50.1
23 | CNc1nc2c(s1)C(c1c(Cl)cccc1Cl)CC(=O)N2 (stereo unspecified) | 89.4 µM and 43.2 µM | 20.8 µM and 17.5 µM | 21.3 µM and 23 µM |  |  | > 50.1
24 | COCCn1ccc2cc(NC(C)=O)ccc21 | > 100 µM |  |  |  |  | 
